Measurements taken from paper PMC12171880, “Selectivity and Safety Characterization of a Xanthine–Imidazothiazole Lead Structure: a Novel Tryptophan Hydroxylase Inhibitor of Peripheral Serotonin Synthesis” (ACS Pharmacology & Translational Science, 2025).

Legend:
[1] = test system: Sugen–Hypoxia rat model of pulmonary arterial hypertension; details: previous study; cited from earlier work
[2] = test system: Sprague–Dawley rats; assay: Dose-range finding study in rats, in-life phase; type: in vivo, rat
Procedure: The in-life phase of the experiment was performed at Pharmacelsus GmbH (Saarbrücken, Germany) and enrolled 24 Sprague–Dawley rats (12 males and 12 females) provided by Janvier Laboratories (France); the animals were 7 weeks old at delivery. Inclusion criteria (sex, appropriate body weight, and absence of behavioral changes) were established prior to the study’s commencement. The animals were housed in a temperature-controlled room (20–24 °C) and maintained in a 12 h light/12 h dark cycle. Before the start of the study, the animals underwent a six-day acclimation period. Food and water were available ad libitum throughout the duration of the study.
(§1) TPT-004 was formulated in 0.5% (w/v) CMC-Na in water and administered by oral gavage (PO) twice daily (b.i.d.) with a 12 h interval to the treatment groups (3 male and 3 female Sprague–Dawley rats each) for 8 days (15 successive applications). Rats were dosed with 10, 45, and 200 mg/kg, i.e., daily doses of 20, 90, and 400 mg/kg. In addition, a control group was dosed at the same frequency as the vehicle (0.5% CMC-Na).
Blood samples were collected as described below. The animal sacrifice (exsanguination) was performed on day 8. During the necropsy, the selected organs were collected, weighed, and shipped to a third-party laboratory for histopathological examination (as described below).

[3] = molecular target: T1, rat homolog of TH (Rattus norvegicus, UniProt P04177); assay: Eurofins Diversity Panel enzyme assay, rat TH; type: biochemical
T1 construct: Eurofins Cerep (contract screening)
T1 sequence (P04177 whole entry): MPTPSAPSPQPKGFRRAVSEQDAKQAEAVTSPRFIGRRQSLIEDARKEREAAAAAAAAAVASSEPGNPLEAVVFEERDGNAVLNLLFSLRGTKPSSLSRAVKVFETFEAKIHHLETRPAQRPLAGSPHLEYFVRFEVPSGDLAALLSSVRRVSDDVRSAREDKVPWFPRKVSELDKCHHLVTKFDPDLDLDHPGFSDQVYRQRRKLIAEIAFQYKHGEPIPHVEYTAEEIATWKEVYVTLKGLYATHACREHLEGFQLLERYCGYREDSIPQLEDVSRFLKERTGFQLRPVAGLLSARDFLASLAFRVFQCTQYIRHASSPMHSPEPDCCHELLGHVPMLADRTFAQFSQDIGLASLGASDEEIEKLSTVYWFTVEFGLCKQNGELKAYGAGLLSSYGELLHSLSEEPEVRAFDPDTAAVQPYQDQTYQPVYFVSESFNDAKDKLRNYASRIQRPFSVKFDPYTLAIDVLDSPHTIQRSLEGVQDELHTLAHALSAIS
Procedure: TPT-004 was evaluated at a concentration of 10 μM in a total of 97 binding, enzyme, and uptake assays (Diversity Panel) by Eurofins Cerep (Celle l’Evescault, France). Compound binding was calculated as % inhibition of the binding of a ligand specific to each target. The compound enzyme inhibition effect was calculated as percentage inhibition of the control enzyme activity. Results showing an inhibition (or stimulation for assays run under basal conditions) of >50% are considered to represent significant effects of the test compounds. Results showing an inhibition (or stimulation) between 25% and 50% are indicative of weak to moderate effects. Results showing an inhibition (or stimulation) lower than 25% are not considered significant and are mostly attributable to variability in the signal around the control level. […] In each experiment, and if applicable, the respective reference compound was tested concurrently with TPT-004, and the data were compared with historical values determined at Eurofins. […]
The results are expressed as a percent of control-specific binding: measured specific binding/control specific binding×100 and as a percent inhibition of control-specific binding: 100−(measured specific binding/control specific binding×100) obtained in the presence of TPT-004. […]

[4] = test system: Sprague–Dawley rats; assay: Dose-range finding study in rats, hematology; type: in vivo, rat; parameters: red cell distribution width (RDW): unit not given here; details: for ERY / HCT / HGB / LEU / LYM / LYM (%) / MCH / MCHC / MCV / MON / MON (%) / MPV / NEU / NEU (%) / PCT / PDWc / PDWs / PLT / RDWc / RDWs: day 8
Procedure: as §1
A blood sample of 100 μL was obtained from each rat by puncturing one of the lateral tail veins under short isoflurane anesthesia. Blood was collected in tubes containing lithium heparin and gently mixed. After centrifugation (10 min at 3000g, 4 °C), plasma was separated and stored at −20 °C until LC-MS analysis. In addition, on day 8, the rats were exsanguinated by cardiac puncture under isoflurane anesthesia. A volume of 100 μL of blood (K3-EDTA) was used for immediate cell blood count, while the rest of the blood was mixed with lithium heparin and centrifuged to generate plasma for clinical chemistry analysis.

[5] = 10, 45, or 200 mg/kg BID PO, 8 days
[6] = 10, 45 or 200 mg/kg BID PO, D1 to D8

For `CCn1c(=O)[nH]c(=O)c2c1nc(Cc1cn3cc(C)sc3n1)n2CC1COC1` [TPT-004], the “dose needed to achieve the therapeutic effects” value [1] is listed as 10 mg/kg BID, the clinical signs [2, 5] is listed as “None of the rats exhibited clinical signs” and the survival [2, 5] is listed as “All of the animals survived”. The body weight [2, 6] was “increased normally”, the food consumption [2, 6] was “in the same range as that of the control group” and the inhibition at 10 µM [3] was 87.8%. It also gave an ERY ([4]; 10 mg/kg PO BID) of 8.15e+12 L⁻¹, an HCT ([4]; 10 mg/kg PO BID) of 49.64% and an HGB ([4]; 10 mg/kg PO BID) of 13.9 g/dL. The LEU ([4]; 10 mg/kg PO BID) was 1.308e+10 L⁻¹, the LYM ([4]; 10 mg/kg PO BID) was 1.091e+10 L⁻¹ and the “LYM (%)” value ([4]; 10 mg/kg PO BID) was 82.8%. For the same compound, the MCH ([4]; 10 mg/kg PO BID) was 17.1 pg, the MCHC ([4]; 10 mg/kg PO BID) was 28.0 g/dL and the MCV ([4]; 10 mg/kg PO BID) was 61 fL. The MON ([4]; 10 mg/kg PO BID) was 5.8e+08 L⁻¹, the “MON (%)” value ([4]; 10 mg/kg PO BID) was 4.0% and the MPV ([4]; 10 mg/kg PO BID) was 8.2 fL. The NEU ([4]; 10 mg/kg PO BID) was 1.59e+09 L⁻¹, the “NEU (%)” value ([4]; 10 mg/kg PO BID) was 13.3% and the PCT ([4]; 10 mg/kg PO BID) was 0.15%. The PDWc ([4]; 10 mg/kg PO BID) was 33.7%, the PDWs ([4]; 10 mg/kg PO BID) was 12.3 fL and the PLT ([4]; 10 mg/kg PO BID) was 1.69e+11 L⁻¹. It also gave an RDWc ([4]; 10 mg/kg PO BID) of 16.4%, an RDWs ([4]; 10 mg/kg PO BID) of 37.6 fL and an ERY ([4]; 45 mg/kg PO BID) of 8.12e+12 L⁻¹. It also gave an HCT ([4]; 45 mg/kg PO BID) of 48.67%, an HGB ([4]; 45 mg/kg PO BID) of 14.0 g/dL and an LEU ([4]; 45 mg/kg PO BID) of 1.748e+10 L⁻¹. The LYM ([4]; 45 mg/kg PO BID) was 1.446e+10 L⁻¹, the “LYM (%)” value ([4]; 45 mg/kg PO BID) was 82.7% and the MCH ([4]; 45 mg/kg PO BID) was 17.3 pg. The MCHC ([4]; 45 mg/kg PO BID) was 28.8 g/dL, the MCV ([4]; 45 mg/kg PO BID) was 60 fL and the MON ([4]; 45 mg/kg PO BID) was 1.07e+09 L⁻¹. The “MON (%)” value ([4]; 45 mg/kg PO BID) was 6.2%, the MPV ([4]; 45 mg/kg PO BID) was 8.3 fL and the NEU ([4]; 45 mg/kg PO BID) was 1.95e+09 L⁻¹. The “NEU (%)” value ([4]; 45 mg/kg PO BID) was 11.1%, the PCT ([4]; 45 mg/kg PO BID) was 0.08% and the PDWc ([4]; 45 mg/kg PO BID) was 36.1%. For the same compound, the PDWs ([4]; 45 mg/kg PO BID) was 13.9 fL, the PLT ([4]; 45 mg/kg PO BID) was 1.04e+11 L⁻¹ and the RDWc ([4]; 45 mg/kg PO BID) was 17.2%. The RDWs ([4]; 45 mg/kg PO BID) was 38.7 fL, the “red cell distribution width (RDW)” value ([4]; 200 mg/kg BID, vehicle 16.4 ± 0.8, p = 0.0109) was 19.3 ± 1.6 and the ERY ([4]; 200 mg/kg PO BID) was 8.03e+12 L⁻¹. The HCT ([4]; 200 mg/kg PO BID) was 45.70%, the HGB ([4]; 200 mg/kg PO BID) was 13.1 g/dL and the LEU ([4]; 200 mg/kg PO BID) was 1.534e+10 L⁻¹. For the same compound, the LYM ([4]; 200 mg/kg PO BID) was 1.263e+10 L⁻¹, the “LYM (%)” value ([4]; 200 mg/kg PO BID) was 82.9% and the MCH ([4]; 200 mg/kg PO BID) was 16.4 pg. The MCHC ([4]; 200 mg/kg PO BID) was 28.7 g/dL, the MCV ([4]; 200 mg/kg PO BID) was 57 fL and the MON ([4]; 200 mg/kg PO BID) was 7.4e+08 L⁻¹. The “MON (%)” value ([4]; 200 mg/kg PO BID) was 4.8%, the MPV ([4]; 200 mg/kg PO BID) was 8.3 fL and the NEU ([4]; 200 mg/kg PO BID) was 1.97e+09 L⁻¹. The “NEU (%)” value ([4]; 200 mg/kg PO BID) was 12.3%, the PCT ([4]; 200 mg/kg PO BID) was 0.14% and the PDWc ([4]; 200 mg/kg PO BID) was 35.8%. The PDWs ([4]; 200 mg/kg PO BID) was 13.7 fL, the PLT ([4]; 200 mg/kg PO BID) was 1.79e+11 L⁻¹ and the RDWc ([4]; 200 mg/kg PO BID) was 19.3%. For the same compound, the RDWs ([4]; 200 mg/kg PO BID) was 40.8 fL, the “hematology parameters, overall” value [4, 5] was “did not alter the hematology parameters” and the “number of platelets (PLT), differences to control” value [4, 5] was “these differences were not significant”.
